In article PMC11249646, “Small-Molecule Disruptors of the Interaction between Calcium- and Integrin-Binding Protein 1 and Integrin αIIbβ3 as Novel Antiplatelet Agents” (ACS Pharmacology & Translational Science, 2024):

target: T1, CIB1 and αIIb interaction (CIB1-GST : F-αIIb peptide) (Homo sapiens, UniProt Q99828); experiment: FP assay, 1536-well qHTS format (primary and confirmatory screen); format: binding; details: qHTS primary screen hits, Table S2; NPACT library; negative sign = inhibitory curve
T1 construct: made in house; host or cells: BL-21 plus RIL cells (E. coli)
T1 sequence (Q99828 1-191): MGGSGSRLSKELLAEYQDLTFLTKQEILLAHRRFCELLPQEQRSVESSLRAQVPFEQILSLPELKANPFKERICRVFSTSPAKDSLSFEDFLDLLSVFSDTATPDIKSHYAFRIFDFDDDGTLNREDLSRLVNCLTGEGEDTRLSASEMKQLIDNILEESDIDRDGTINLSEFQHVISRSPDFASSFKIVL

Row | Compound | Curve Class
1 | CCc1c(-c2ccccc2)c(-c2ccccc2)nn1-c1ccccc1-c1cccc(OCC(=O)O)c1 [NCGC00387254-02] | -2.4
2 | O=C1Nc2ccc3ncsc3c2/C1=C/c1c[nH]cn1 [NCGC00387501-01] | -1.4
3 | CC(=O)N[C@@H](CC(=O)O)C(=O)N[C@@H](CCC(=O)O)C(=O)N[C@H](C(=O)N[C@@H](CC(=O)O)C(=O)Nc1ccc2c(C)cc(=O)oc2c1)C(C)C [NCGC00485360-01] | -2.4

same assay, conditions: qHTS primary screen hits, Table S2; negative = inhibition

Row | Compound | Efficacy (%)
4 | CCc1c(-c2ccccc2)c(-c2ccccc2)nn1-c1ccccc1-c1cccc(OCC(=O)O)c1 [NCGC00387254-02] | -30%
5 | O=C1Nc2ccc3ncsc3c2/C1=C/c1c[nH]cn1 [NCGC00387501-01] | -27%
6 | NS(=O)(=O)c1ccc(Cc2c(-c3ccc(F)c(-c4cccs4)c3)nn(-c3nc(C(=O)O)cs3)c2CC2CC2)cc1F.O=C(O)C(F)(F)F [NCGC00390071-01] | -33%
7 | O=C([O-])CCNc1cc(N2CCc3ccccc3CC2)nc(-c2ccccn2)n1.[Na+] [NCGC00390406-01] | -28%
8 | COCc1ccc(-c2nn(Cc3ccccc3)c3ccccc23)o1 [NCGC00479273-01] | -37%
9 | CC(=O)N[C@@H](CC(=O)O)C(=O)N[C@@H](CCC(=O)O)C(=O)N[C@H](C(=O)N[C@@H](CC(=O)O)C(=O)Nc1ccc2c(C)cc(=O)oc2c1)C(C)C [NCGC00485360-01] | -37%
10 | COc1ccc(C2CC(=O)Nc3nc(N4CCCCC4)sc32)c(OC)c1.O=C(O)C(F)(F)F (stereo not drawn) [NCGC00488246-02] | -89%
11 | O=C(O)C(F)(F)F.O=C1CC(c2ccc(F)cc2F)c2sc(N3CCOCC3)nc2N1 (stereo not drawn) [NCGC00488253-02] | -42%
12 | O=C(O)C(F)(F)F.O=C1CC(c2ccccc2F)c2sc(N3CCOCC3)nc2N1 (stereo not drawn) [NCGC00488254-02] | -42%
13 | O=C(O)C(F)(F)F.O=C1CC(c2ccccc2Br)c2sc(N3CCOCC3)nc2N1 (stereo not drawn) [NCGC00488255-02] | -54%
14 | COc1ccc(C2CC(=O)Nc3nc(N4CCOCC4)sc32)c(OC)c1.O=C(O)C(F)(F)F (stereo not drawn) [NCGC00488259-02] | -59%
15 | O=C(O)C(F)(F)F.O=C1CC(c2ccc(F)cc2Cl)c2sc(N3CCOCC3)nc2N1 (stereo not drawn) [NCGC00488260-02] | -41%
16 | O=C(O)C(F)(F)F.O=C1CC(c2c(F)cccc2F)c2sc(N3CCOCC3)nc2N1 (stereo not drawn) [NCGC00488261-02] | -47%
17 | CNc1nc2c(s1)C(c1ccc(OC)cc1OC)CC(=O)N2.O=C(O)C(F)(F)F (stereo not drawn) [NCGC00488262-02] | -39%

same assay, conditions: qHTS primary screen hits, Table S2; negative sign = inhibitory curve

Row | Compound | Curve Class
18 | O=C([O-])CCNc1cc(N2CCc3ccccc3CC2)nc(-c2ccccn2)n1.[Na+] [NCGC00390406-01] | -2.4
19 | CNc1nc2c(s1)C(c1ccc(OC)cc1OC)CC(=O)N2.O=C(O)C(F)(F)F (stereo not drawn) [NCGC00488262-02] | -2.4

same assay, conditions: qHTS primary screen hits, Table S2; negative sign = inhibitory curve; several classes where COUNT > 1

Row | Compound | Curve Class
20 | NS(=O)(=O)c1ccc(Cc2c(-c3ccc(F)c(-c4cccs4)c3)nn(-c3nc(C(=O)O)cs3)c2CC2CC2)cc1F.O=C(O)C(F)(F)F [NCGC00390071-01] | -2.2
21 | COCc1ccc(-c2nn(Cc3ccccc3)c3ccccc23)o1 [NCGC00479273-01] | -2.4
22 | COc1ccc(C2CC(=O)Nc3nc(N4CCCCC4)sc32)c(OC)c1.O=C(O)C(F)(F)F (stereo not drawn) [NCGC00488246-02] | -2.3
23 | O=C(O)C(F)(F)F.O=C1CC(c2ccc(F)cc2F)c2sc(N3CCOCC3)nc2N1 (stereo not drawn) [NCGC00488253-02] | -2.4
24 | O=C(O)C(F)(F)F.O=C1CC(c2ccccc2F)c2sc(N3CCOCC3)nc2N1 (stereo not drawn) [NCGC00488254-02] | -2.4
25 | O=C(O)C(F)(F)F.O=C1CC(c2ccccc2Br)c2sc(N3CCOCC3)nc2N1 (stereo not drawn) [NCGC00488255-02] | -2.4
26 | COc1ccc(C2CC(=O)Nc3nc(N4CCOCC4)sc32)c(OC)c1.O=C(O)C(F)(F)F (stereo not drawn) [NCGC00488259-02] | -2.4
27 | O=C(O)C(F)(F)F.O=C1CC(c2ccc(F)cc2Cl)c2sc(N3CCOCC3)nc2N1 (stereo not drawn) [NCGC00488260-02] | -2.4
28 | O=C(O)C(F)(F)F.O=C1CC(c2c(F)cccc2F)c2sc(N3CCOCC3)nc2N1 (stereo not drawn) [NCGC00488261-02] | -2.4

same assay, conditions: qHTS primary screen hits, Table S2; read-out: IC50

Row | Compound | IC50
29 | CCc1c(-c2ccccc2)c(-c2ccccc2)nn1-c1ccccc1-c1cccc(OCC(=O)O)c1 [NCGC00387254-02] | 56.2 µM
30 | O=C1Nc2ccc3ncsc3c2/C1=C/c1c[nH]cn1 [NCGC00387501-01] | 7.1 µM
31 | NS(=O)(=O)c1ccc(Cc2c(-c3ccc(F)c(-c4cccs4)c3)nn(-c3nc(C(=O)O)cs3)c2CC2CC2)cc1F.O=C(O)C(F)(F)F [NCGC00390071-01] | 50.1 µM
32 | O=C([O-])CCNc1cc(N2CCc3ccccc3CC2)nc(-c2ccccn2)n1.[Na+] [NCGC00390406-01] | 26.3 µM
33 | COCc1ccc(-c2nn(Cc3ccccc3)c3ccccc23)o1 [NCGC00479273-01] | 56.2 µM
34 | CC(=O)N[C@@H](CC(=O)O)C(=O)N[C@@H](CCC(=O)O)C(=O)N[C@H](C(=O)N[C@@H](CC(=O)O)C(=O)Nc1ccc2c(C)cc(=O)oc2c1)C(C)C [NCGC00485360-01] | 39.8 µM
35 | COc1ccc(C2CC(=O)Nc3nc(N4CCCCC4)sc32)c(OC)c1.O=C(O)C(F)(F)F (stereo not drawn) [NCGC00488246-02] | 56.2 µM
36 | O=C(O)C(F)(F)F.O=C1CC(c2ccc(F)cc2F)c2sc(N3CCOCC3)nc2N1 (stereo not drawn) [NCGC00488253-02] | 50.1 µM
37 | O=C(O)C(F)(F)F.O=C1CC(c2ccccc2F)c2sc(N3CCOCC3)nc2N1 (stereo not drawn) [NCGC00488254-02] | 56.2 µM
38 | O=C(O)C(F)(F)F.O=C1CC(c2ccccc2Br)c2sc(N3CCOCC3)nc2N1 (stereo not drawn) [NCGC00488255-02] | 79.4 µM
39 | COc1ccc(C2CC(=O)Nc3nc(N4CCOCC4)sc32)c(OC)c1.O=C(O)C(F)(F)F (stereo not drawn) [NCGC00488259-02] | 56.2 µM
40 | O=C(O)C(F)(F)F.O=C1CC(c2ccc(F)cc2Cl)c2sc(N3CCOCC3)nc2N1 (stereo not drawn) [NCGC00488260-02] | 50.1 µM
41 | O=C(O)C(F)(F)F.O=C1CC(c2c(F)cccc2F)c2sc(N3CCOCC3)nc2N1 (stereo not drawn) [NCGC00488261-02] | 56.2 µM
42 | CNc1nc2c(s1)C(c1ccc(OC)cc1OC)CC(=O)N2.O=C(O)C(F)(F)F (stereo not drawn) [NCGC00488262-02] | 56.2 µM

same assay, conditions: qHTS primary screen of LOPAC/NPACT libraries; negative = inhibition

Row | Efficacy (%) | Compound
43 | -28% | O=C(O)CC1(O)C(=O)Nc2ccccc21 (stereo not drawn) [NCGC00385842-01]
44 | -21% | C=C1C(=O)OC2/C=C(\C)CC/C=C(\C)CC(OC(C)=O)C12 (stereo not drawn) [NCGC00385946-01]
45 | -28% | C/C=C/C=C/c1cc2c(C=O)c(O)c(CC=C(C)C)cc2o1 [NCGC00386103-01]
46 | -24% | O=C(NCc1ccc(Oc2ccccc2)cc1)c1nc(-c2cc(Br)c(O)c(Br)c2)no1 [NCGC00386303-01]
47 | -22% | C=CC(=O)Nc1cccc(Nc2nc(Nc3ccc(OCCOC)cc3)ncc2F)c1 [NCGC00386306-06]
48 | -28% | Cc1ccccc1NC(=O)Nc1ccc(CN2C(=O)N([C@@H](CC(C)C)C(=O)N[C@@H](CC(=O)O)c3ccccc3)C(=O)C2(C)C)cc1 [NCGC00386592-01]
49 | -31% | Cc1cc2occ(CN(C)CCN(C)Cc3cn(-c4cccc(C(F)(F)F)c4)c4ccccc34)c(=O)c2cc1C.Cl [NCGC00386701-02]
50 | -33% | CC/C(=C(\c1ccc(O)cc1)c1ccc(OCCNC)cc1)c1ccccc1 [NCGC00386714-01]
51 | -21% | CCOc1ccc(-c2cc(NC(=O)c3c(F)cccc3F)c(C(=O)O)s2)cc1 [NCGC00386875-01]

same assay, conditions: qHTS primary screen of LOPAC/NPACT libraries; negative sign = inhibitory curve

Row | Curve Class | Compound
52 | -2.4 | O=C(O)CC1(O)C(=O)Nc2ccccc21 (stereo not drawn) [NCGC00385842-01]
53 | -1.4 | C=C1C(=O)OC2/C=C(\C)CC/C=C(\C)CC(OC(C)=O)C12 (stereo not drawn) [NCGC00385946-01]
54 | -2.4 | C/C=C/C=C/c1cc2c(C=O)c(O)c(CC=C(C)C)cc2o1 [NCGC00386103-01]
55 | -1.4 | O=C(NCc1ccc(Oc2ccccc2)cc1)c1nc(-c2cc(Br)c(O)c(Br)c2)no1 [NCGC00386303-01]
56 | -1.4 | C=CC(=O)Nc1cccc(Nc2nc(Nc3ccc(OCCOC)cc3)ncc2F)c1 [NCGC00386306-06]
57 | -2.4 | Cc1ccccc1NC(=O)Nc1ccc(CN2C(=O)N([C@@H](CC(C)C)C(=O)N[C@@H](CC(=O)O)c3ccccc3)C(=O)C2(C)C)cc1 [NCGC00386592-01]
58 | -2.4 | Cc1cc2occ(CN(C)CCN(C)Cc3cn(-c4cccc(C(F)(F)F)c4)c4ccccc34)c(=O)c2cc1C.Cl [NCGC00386701-02]
59 | -2.4 | CC/C(=C(\c1ccc(O)cc1)c1ccc(OCCNC)cc1)c1ccccc1 [NCGC00386714-01]
60 | -1.4 | CCOc1ccc(-c2cc(NC(=O)c3c(F)cccc3F)c(C(=O)O)s2)cc1 [NCGC00386875-01]

same assay, conditions: qHTS primary screen of LOPAC/NPACT libraries; read-out: IC50

Row | IC50 | Compound
61 | 56.2 µM | O=C(O)CC1(O)C(=O)Nc2ccccc21 (stereo not drawn) [NCGC00385842-01]
62 | 11.2 µM | C=C1C(=O)OC2/C=C(\C)CC/C=C(\C)CC(OC(C)=O)C12 (stereo not drawn) [NCGC00385946-01]
63 | 63.1 µM | C/C=C/C=C/c1cc2c(C=O)c(O)c(CC=C(C)C)cc2o1 [NCGC00386103-01]
64 | 17.8 µM | O=C(NCc1ccc(Oc2ccccc2)cc1)c1nc(-c2cc(Br)c(O)c(Br)c2)no1 [NCGC00386303-01]
65 | 10 µM | C=CC(=O)Nc1cccc(Nc2nc(Nc3ccc(OCCOC)cc3)ncc2F)c1 [NCGC00386306-06]
66 | 56.2 µM | Cc1ccccc1NC(=O)Nc1ccc(CN2C(=O)N([C@@H](CC(C)C)C(=O)N[C@@H](CC(=O)O)c3ccccc3)C(=O)C2(C)C)cc1 [NCGC00386592-01]
67 | 79.4 µM | Cc1cc2occ(CN(C)CCN(C)Cc3cn(-c4cccc(C(F)(F)F)c4)c4ccccc34)c(=O)c2cc1C.Cl [NCGC00386701-02]
68 | 79.4 µM | CC/C(=C(\c1ccc(O)cc1)c1ccc(OCCNC)cc1)c1ccccc1 [NCGC00386714-01]
69 | 14.1 µM | CCOc1ccc(-c2cc(NC(=O)c3c(F)cccc3F)c(C(=O)O)s2)cc1 [NCGC00386875-01]
